# Experiments:
# CD4 T cells = test: Flow-cytometry analysis of activation markers CD25 and CD69; type: cell-based, human; conditions: PHA treatment during three days before infection
# [1] = tested on: HIV-1 VSV-G pseudotype (NL4.3-luc) in CD4 T cells; type: cell-based
# [2] = tested on: HIV-1 VSV-G pseudotype (NL4.3-luc) in MDM cells; type: cell-based
# [3] = tested on: HIV-1 VSV-G pseudotype (NL4.3-luc) in MDM cells; type: cell-based; remark: listed apart in the source
# [4] = tested on: HIV-1 VSV-G pseudotype (NL4.3-luc) in MDM cells; type: cell-based; remark: listed apart in the source
compound,measurement,setting,value
phytohemagglutinin [PHA],global activation of CD4 T cells,CD4 T cells,> 98%
same,duration of increase of photon emission until stable plateau level,[1],4 h
same,positive lymphocytes (bioluminescence) in cells treated before infection,[1],abundant numbers of positive lymphocytes
same,time after mitogen stimulation at which photon emission began to be detected in formerly negative cells,[1],8 h
"O=C(O)C(=O)CC(=O)c1cccn1Cc1ccc(F)cc1 [L-731,988]",number of cells emitting bioluminescence,[2],reduction in the number of cells emitting bioluminescence
same,number of photons emitted per individual cell,[2],significant reduction in the number of photons emitted per individual cell
same,overall averaged bioluminescence intensity,[2],decreased
same,luciferase activity in cell lysates,[3],reduced in a dose-dependent manner
"CCCCCCCCCCCCCC(=O)O[C@@H]1[C@@H](C)[C@@]2(O)[C@@H](C=C(CO)C[C@]3(O)C(=O)C(C)=C[C@@H]23)[C@@H]2C(C)(C)[C@]12OC(C)=O [PMA, phorbol 12-myristate 13-acetate]",time after stimulation at which bioluminescence signal began to increase,[4],4 h

# Reference: US20070141673A1, “Tool for quantitative real-time analysis of viral gene expression dynamics in single living cells” (priority 2005, published 2007)
